Reference: US20080171159A1, “METHOD FOR STORING A DRUG-LOADED SUPPORT” (priority 2007, published 2008)

Assay: Vapor pressure at 25° C. by the Donovan method (gas chromatography)
Assay type: physicochemical
Procedure: The pyrethroid compound volatile at ambient temperature used in the present invention (hereinafter referred to as “the present active ingredient”) is a pyrethroid compound with a vapor pressure of about 6×10^−6 to about 1×10^−4 mm Hg at 25° C. when measured, for instance, by the method reported by Stephen F. Donovan (New method for estimating vapor pressure by use of gas chromatography, Journal of Chromatography A. 749(1996) 123-129, hereinafter referred to as “Donovan method”) and an ester compound represented by formula (I)
Specific examples of the present active ingredient are 2,3,5,6-tetrafluoro-4-methylbenzyl 3-(1-propenyl)-2,2-dimethylcyclopropanecarboxylate (7.7×10^−5 mm Hg), 2,3,5,6-tetrafluoro-4-methylbenzyl 3-(2-methyl-1-propenyl)-2,2-dimethylcyclopropanecarboxylate(3.1×10^−5 mm Hg), 2,3,5,6-tetrafluorobenzyl 3-(2,2-dichlorovinyl)-2,2-dimethylcyclopropanecarboxylate (2.6×10^−5 mm Hg), 2,3,5,6-tetrafluoro-4-methoxymethylbenzyl 3-(1-propenyl)-2,2-dimethylcyclopropanecarboxylate(1.4×10^-5 mm Hg), and 2,3,5,6-tetrafluoro-4-methoxymethylbenzyl 3-(2-methyl-1-propenyl)-2,2-dimethylcyclopropanecarboxylate(6.8×10^−6 mm Hg).

Compound	vapor pressure
CC(C)=CC1C(C(=O)OCc2c(F)c(F)c(C)c(F)c2F)C1(C)C (centres unmarked) [2,3,5,6-tetrafluoro-4-methylbenzyl 3-(2-methyl-1-propenyl)-2,2-dimethylcyclopropanecarboxylate]	3.1×10^−5 mm Hg
CC1(C)C(C=C(Cl)Cl)C1C(=O)OCc1c(F)c(F)cc(F)c1F (centres unmarked) [2,3,5,6-tetrafluorobenzyl 3-(2,2-dichlorovinyl)-2,2-dimethylcyclopropanecarboxylate]	2.6×10^−5 mm Hg
COCc1c(F)c(F)c(COC(=O)C2C(C=C(C)C)C2(C)C)c(F)c1F (centres unmarked) [2,3,5,6-tetrafluoro-4-methoxymethylbenzyl 3-(2-methyl-1-propenyl)-2,2-dimethylcyclopropanecarboxylate]	6.8×10^−6 mm Hg
CC=CC1C(C(=O)OCc2c(F)c(F)c(COC)c(F)c2F)C1(C)C (centres unmarked) [2,3,5,6-tetrafluoro-4-methoxymethylbenzyl 3-(1-propenyl)-2,2-dimethylcyclopropanecarboxylate]	1.4×10^-5 mm Hg
CC=CC1C(C(=O)OCc2c(F)c(F)c(C)c(F)c2F)C1(C)C (centres unmarked) [2,3,5,6-tetrafluoro-4-methylbenzyl 3-(1-propenyl)-2,2-dimethylcyclopropanecarboxylate]	7.7×10^−5 mm Hg
